{"source": "paper PMC5021521", "about": "“Coordinated recruitment of Spir actin nucleators and myosin V motors to Rab11 vesicle membranes” (eLife, 2016)", "molecules": {"B1": {"name": "His6-mCherry-Spir-2-linker (domain or fragment, human, UniProt Q8WWL2 361-519, looked up)", "chain": "GEGWAARGFGSLPCILNACSGDAKSTSCINLSVTDAGGSAQRPRPRVLLKAPTLAEMEEMNTSEEEESPCGEVTLKRDRSFSEHDLAQLRSEVASGLQSATHPPGGTEPPRPRAGSAHVWRPGSRDQGTCPASVSDPSHPLLSNRGSSGDRPEASMTPD", "notes": "Spir-2 central linker region, human, aa 361-519; also called His-mCherry-Spir2-linker; His6-mCherry-hs-Spir2-linker; source: E. coli (Rosetta or Rosetta (DE3) pLysS; BL21(DE3)), purified (Ni-NTA, Superdex 200); not shown: His6, N-terminal, kept; mCherry, N-terminal, kept"}, "B2": {"name": "GST-MyoVb-GTD: GST-hs-MyoVb-GTD aa 1467 - 1848 (protein)", "chain": "QGMLEYHKEDEALLIRNLVTDLKPQMLSGTVPCLPAYILYMCIRHADYTNDDLKVHSLLTSTINGIKKVLKKHNDDFEMTSFWLSNTCRLLHCLKQYSGDEGFMTQNTAKQNEHCLKNFDLTEYRQVLSDLSIQIYQQLIKIAEGVLQPMIVSAMLENESIQGLSGVKPTGYRKRSSSMADGDNSYCLEAIIRQMNAFHTVMCDQGLDPEIILQVFKQLFYMINAVTLNNLLLRKDVCSWSTGMQLRYNISQLEEWLRGRNLHQSGAVQTMEPLIQAAQLLQLKKKTQEDAEAICSLCTSLSTQQIVKILNLYTPLNEFEERVTVAFIRTIQAQLQERNDPQQLLLDAKHMFPVLFPFNPSSLTMDSIHIPACLNLEFLNEV", "modifications": "left off: GST, end not stated, kept"}, "B3": {"name": "GST-Spir-2-GTBM-SB-FYVE: GST-hs-Spir2-GTBM-SB-FYVE aa 361 - 714 (protein)", "chain": "GEGWAARGFGSLPCILNACSGDAKSTSCINLSVTDAGGSAQRPRPRVLLKAPTLAEMEEMNTSEEEESPCGEVTLKRDRSFSEHDLAQLRSEVASGLQSATHPPGGTEPPRPRAGSAHVWRPGSRDQGTCPASVSDPSHPLLSNRGSSGDRPEASMTPDAKHLWLEFSHPVESLALTVEEVMDVRRVLVKAEMEKFLQNKELFSSLKKGKICCCCRAKFPLFSWPPSCLFCKRAVCTSCSIKMKMPSKKFGHIPVYTLGFESPQRVSAAKTAPIQRRDIFQSLQGPQWQSVEEAFPHIYSHGCVLKDVCSECTSFVADVVRSSRKSVDVLNTTPRRSRQTQSLYIPNTRTLDFK", "modifications": "left off: GST, end not stated, kept"}}, "key": {"Spir-1": {"tested_on": "Spir-1", "test": "GST-pulldown from mouse brain lysates", "type": "binding", "conditions": "50 µg GST-fusion protein; immunoblot anti-Spir-1; N = 3", "experimental": "Wild-type C57BL/6 (Jackson Laboratory, Bar Harbor, ME, USA) mice were killed by cervical dislocation. The brain was isolated immediately, washed in cold PBS and lysed in lysis buffer (25 mM Tris-HCl pH 7.4, 150 mM NaCl, 5 mM MgCl2, 10% (v/v) glycerol, 0.1% (v/v) Nonidet P-40, 0.1 M NaF, 1 mM Na3VO4, 1 mM PMSF, protease inhibitor cocktail) using a TissueRuptor (Qiagen). Following incubation on ice for 45 min, the lysate was centrifuged at 20,000 x g, 4°C until the supernatant was clear. Brain lysates were incubated with GSH-Sepharose 4B beads, loaded with 50 µg GST-fusion proteins as indicated, for 2.5 hr at 4°C on a rotating wheel. Beads were washed five times with pulldown buffer and bound proteins were eluted by 1x Laemmli buffer and denatured at 95°C for 10 min. Pulled proteins were analyzed by immunoblotting."}, "GST-Rab11a-Q70L": {"tested_on": "GST-Rab11a-Q70L", "test": "GST-pulldown from HEK293 lysates", "type": "binding", "conditions": "N = 2", "experimental": "HEK293 cells were co-transfected with expression vectors encoding Myc-Spir-2-FL, mStrawberry-FMN2-FH2-FSI, eGFP-MyoVa-D-FL and eGFP-MyoVa-D-Q1753R, respectively. 24 hr post transfection, cells were lysed in lysis buffer (25 mM Tris-HCl pH 7.4, 150 mM NaCl, 5 mM MgCl2, 10% (v/v) glycerol, 0.1% (v/v) Nonidet P-40, 1 mM PMSF, protease inhibitor cocktail) and centrifuged at 20,000 x g, 4°C, 20 min to remove insoluble debris. For GST-pulldown assays 65 µg GST-Rab11a-Q70L protein (25 µg GST control) was coupled to GSH-Sepharose 4B beads (1:1 suspension) for 1 hr, 4°C on a rotating wheel. Beads were washed twice with pulldown buffer (25 mM Tris-HCl pH 7.4, 150 mM NaCl, 5 mM MgCl2, 10% (v/v) glycerol, 0.1% (v/v) Nonidet P-40) and subsequently incubated with the cell lysates for 2 hr at 4°C on a rotating wheel. Beads were washed four times with pulldown buffer and bound proteins were eluted with 1x Laemmli buffer and denatured at 95°C for 10 min, then were analyzed by immunoblotting."}, "GFP-MyoVa-GTD": {"tested_on": "GFP-MyoVa-GTD", "test": "Co-immunoprecipitation from HEK293 cells", "type": "binding, Mus musculus", "conditions": "anti-Myc co-IP, HEK293, immunoblot, N = 2", "experimental": "(§1) HEK293 cells were transfected with expression vectors encoding Myc-tagged Spir proteins and GFP-tagged myosin Va and myosin Vb fragments. 48 hr post transfection, cells were lysed in lysis buffer (25 mM Tris-HCl pH 7.4, 150 mM NaCl, 5 mM MgCl2, 10% (v/v) glycerol, 0.1% (v/v) Nonidet P-40, 1 mM Phenylmethylsulfonylfluorid (PMSF; Sigma-Aldrich), protease inhibitor cocktail (complete mini, EDTA-free; Roche, Penzberg, Germany)) and centrifuged at 20,000 x g, 4°C, 20 min to remove insoluble debris. The clarified supernatant was incubated with 4 µg anti-c-Myc antibody (9E10, mouse monoclonal; Santa Cruz Biotechnology; RRID: AB_627268) for 1 hr on ice. Subsequently, 40 µl Protein G-Agarose beads (1:1 suspension; Roche) were added and incubated for 2 hr at 4°C on a rotating wheel. Beads were washed with pulldown buffer (25 mM Tris-HCl pH 7.4, 150 mM NaCl, 5 mM MgCl2, 10% (v/v) glycerol, 0.1% (v/v) Nonidet P-40). Bound proteins were eluted with 1x Laemmli buffer and denatured for 10 min at 95°C, then analyzed by immunoblotting."}, "GFP-MyoVb-GTD": {"tested_on": "GFP-MyoVb-GTD", "test": "Co-immunoprecipitation from HEK293 cells", "type": "binding, Homo sapiens", "conditions": "anti-Myc co-IP, HEK293, immunoblot", "experimental": "as §1"}, "GST-MyoVa-GTD (mouse)": {"target": "GST-MyoVa-GTD (mouse)", "test": "pull-down + other fluorescence titration; quantitative GST-pulldown: increasing GST-MyoVa/b-GTD on beads, 100 nM His6-mCherry-Spir-2-linker, 1x PBS with 50 mM NaCl; mCherry fluorescence left in the supernatant at 20°C; single-site fit"}, "GST-MyoVb-GTD": {"target": "T1, GST-MyoVb-GTD (human, UniProt Q9ULV0 1467-1848)", "T1 construct": "myosin Vb globular tail domain, human, aa 1467-1848; also called GST-hs-MyoVb-GTD; pGex-4T1-NTEV-hs-MyoVb-GTD; source: E. coli Rosetta or Rosetta (DE3) pLysS, purified (GSH-Sepharose 4B, Superdex 200)", "T1 sequence (looked up)": "B2 chain", "test": "pull-down + other fluorescence titration; quantitative GST-pulldown: increasing GST-MyoVa/b-GTD on beads, 100 nM His6-mCherry-Spir-2-linker, 1x PBS with 50 mM NaCl; mCherry fluorescence left in the supernatant at 20°C; single-site fit", "conditions": "both partners purified"}, "Rab11a-Q70L": {"tested_on": "Rab11a-Q70L", "test": "GST-pulldown with purified proteins, tripartite complex", "type": "binding, Homo sapiens", "conditions": "N = 3", "experimental": "For GST-pulldown assays, 50 µg of GST-fusion protein was coupled to GSH-Sepharose 4B beads (1:1 suspension) for 1 hr at 4°C on a rotating wheel. Beads were washed twice with pulldown buffer and subsequently incubated with 20 µg His6-mCherry-fusion peptides for 2 hr, 4°C on a rotating wheel. In order to identify the tripartite Spir-2:MyoVa:Rab11a complex, 65 µg GST-Spir-2-GTBM-SB-FYVE was coupled to beads. Subsequently, beads were incubated with 40 µg MyoVa-GTD and 35 µg Rab11a-Q70L simultaneously for 2 hr. Beads were washed four times with pulldown buffer and bound proteins were eluted by 1x Laemmli buffer and denatured at 95°C for 10 min. Pulled proteins were analyzed by immunoblotting."}}, "note": "“Also recorded” adds a separate entry of the source. Ends that are not written are not given here."}
{"molecule": "GST-FMN2-eFSI: GST-mm-FMN2-eFSI aa 1523 - 1578, positive control ({GST}-EFSSDFKDAWKKENKLILQERVKEAEEVCRQKKGKSLYKVKPRHDSGIKAKISMKT) [reference compound]", "values": [{"measurement": "pulldown of endogenous Spir-1 in words", "setting": "Spir-1", "value": "able to pull endogenous Spir-1 from mouse brain lysates"}]}
{"molecule": "Spir-2: Myc-hs-Spir2 aa 2 - 714, full-length (QRPRPRVLLKAPTLAEMEEMNTSEEEE)", "values": [{"measurement": "pulldown by GST-Rab11a-Q70L in words", "setting": "GST-Rab11a-Q70L; HEK293 lysates over-expressing Myc-Spir-2, Straw-FMN2-FH2-FSI and GFP-MyoVa-FL", "value": "able to pull down Myc-Spir-2"}, {"measurement": "pulldown by GST-Rab11a-Q70L in words, with Q1753R mutant MyoVa", "setting": "GST-Rab11a-Q70L; HEK293 lysates with GFP-MyoVa-Q1753R in place of GFP-MyoVa-FL", "value": "Only faint"}, {"measurement": "co-precipitation / interaction with MyoVa-GTD in words", "setting": "GFP-MyoVa-GTD", "value": "interacts"}, {"measurement": "co-precipitation / interaction with MyoVa-GTD in words", "setting": "GFP-MyoVa-GTD; listed as Myc-Spir-2", "value": "co-precipitation"}, {"measurement": "co-precipitation / interaction with MyoVb-GTD in words", "setting": "GFP-MyoVb-GTD", "value": "did interact with the GFP-MyoVb-GTD"}, {"measurement": "co-precipitation / interaction with MyoVb-GTD in words", "setting": "GFP-MyoVb-GTD; listed as Myc-Spir-2", "value": "co-precipitation"}]}
{"molecule": "B1", "values": [{"measurement": "Kd", "setting": "GST-MyoVa-GTD (mouse)", "value": 728, "unit": "nM"}, {"measurement": "Kd", "setting": "GST-MyoVb-GTD", "value": "~377", "unit": "nM"}]}
{"molecule": "B2", "values": [{"measurement": "pulldown of endogenous Spir-1 in words", "setting": "Spir-1", "value": "able to pull endogenous Spir-1 from mouse brain lysates"}]}
{"molecule": "B3", "values": [{"measurement": "pulldown of Rab11a-Q70L in words", "setting": "Rab11a-Q70L; in the presence of MyoVa-GTD", "value": "allows GST-Spir-2-GTBM-SB-FYVE to pull Rab11a-Q70L"}, {"measurement": "pulldown of Rab11a-Q70L in words", "setting": "Rab11a-Q70L; without MyoVa-GTD", "value": "does not interact with Rab11a-Q70L; also recorded: does not pull down Rab11a-Q70L"}]}
